Test results reported in patent US9526254B2, “Pesticide and repellant” (ECOSPRAY LIMITED, priority 2005, dated 2016).

Test system: cabbage root fly
Assay: Swede field trials in Norway, cabbage root fly damage (four sites)
Type: in vivo
Protocol: An extensive program of non-public field trials, which included five crops of swede were carried out. The field trials design was based around multiple applications of either ECOguard® liquid (garlic juice concentrate) or granules (wood flour granules impregnated with the garlic juice concentrate) and in four out of the five swede trials was referenced against Dimethoate as a standard.

CNC(=O)CSP(=S)(OC)OC [Dimethoate]
Combined root damage index (RDI), % Change (in vivo): −5.8%
Combined root damage index (RDI), Ga-Fa (in vivo): 65.78
Combined root damage index (RDI), Mid-Troms (in vivo): 40.60
Combined root damage index (RDI), Sor Ost (in vivo): 24.92
Combined root damage index (RDI), Toten (in vivo): 44.33
Difference of Means (trt 1 control subtracted from trt), cabbage root fly damage (in vivo): −0.3100
cabbage root fly damage, statistical analysis (in vivo): significantly reduced damage
mean saleable yield (cat 1 + 2), % Change (mean of four sites versus control): +8%
